Assay results as given in patent US12352763B2, “Method of determining autophagosome flux and uses thereof” (Stellenbosch University, priority 2016, dated 2025).

Experiments:
LC3, p62 and pmTOR = assay: Western blot analysis probing for LC3, p62 and pmTOR (validation); type: cell-based; conditions: treatment with bafilomycin
Procedure: FIG. 8 is a Western blot analysis probing for LC3, p62 and pmTOR. […] This method, however, cannot measure dynamic changes and vesicular pool size required to measure autophagosome flux. […] Western blot analysis and TEM was performed in the presence and absence of bafilomycin A1. […] Therefore, autophagosome flux cannot be accurately assessed. It allows the detection of the respective protein, LC3 II, from a whole cell population, without linking the protein band signal to single cell pool sizes of entities. Moreover, the nature of Western blot analysis omits any measurements of dynamic changes (FIG. 8).

[1] = test system: mouse embryonic fibroblast (MEF) cells; assay: Determining complete fusion inhibition: saturating inhibitor concentration, Western blot; type: cell-based
Excerpt: FIG. 2 is a Western blot analysis and corresponding graphs illustrating the results of the study to determine the saturating inhibitor concentration of bafilomycin A1 required to fully block autophagosomal/lysosomal fusion.
This saturating concentration should be determined prior to performing the method. […] Although this can be performed through Western blot analysis, a more precise technique is to determine the change over time of the autophagosome pool size after inhibition of fusion using the method of the present invention (FIG. 2). Thus, the change in pool size before and shortly after inhibition of fusion is determined and the rate of change (typically expressed over 1 hour) is calculated.
Bafilomycin A1 was selected as the inhibitor in this example because it is the most commonly used drug in the field.

MEF cells = assay: Autophagosome flux assay: live-cell z-stack fluorescence imaging of GFP-LC3 / LysoTracker Red cells, with fusion blocked by 400 nM bafilomycin A1; type: cell-based, mouse
Procedure: For the autophagosomal pool size analysis, the autophagosomes and the lysosomes were visualized and labelled specifically. The autophagolysosomal entities were identified by co-localization analysis. Stably transfected green fluorescent protein-LC3 (GFP-LC3) cells were treated with the lysosome-labelling marker, LysoTracker® Red (Life Technologies, #L-7528) in order to visualize the autophagosomes, the lysosomes and the autophagolysosomes. MEF cells were seeded onto a sterile cover-slip patterned with large fibronectin discs (CYTOO, #10-003-10) in a CYTOO chamber single well plate. Cells were seeded at a density of 2×10^4 cells and incubated for 30 minutes. Thereafter, the chamber was rinsed several times using DMEM until all adherent cells in the non-patterned regions were washed off. The cells were maintained for 2 hours prior to the experiment in DMEM, containing 75 nM LysoTracker Red, in a humidified atmosphere in the presence of 5% CO2 at […]. The chamber plate was then enclosed in an Olympus IX-81 stage of an inverted fluorescence microscope in the presence of 5% CO2 for the duration of the experiment. Serum starvation was avoided, since it would upregulate autophagosome flux and mask the cell-inherent basal autophagosome flux.
Z-stack image acquisition was performed in order to acquire the complete autophagosomal pool size. An Olympus IX-81 coupled to an MT-20 and xenon burner 150 W and an F-view camera were employed. Temperature and 5% CO2 were controlled. For live cell acquisition, single cell acquisition was performed using automated stage coordinate settings. CellR-based software (Olympus, Soft Imaging) was employed. Images were processed using Cell R imaging software and exported to the modified (for high throughput) automated counting software (ImageJ with WatershedCounting3D plug in (Gniadek et al., 2007)), to count the green and red puncta using voxel dimension 0.08 for both x and y as the search parameters. Puncta count and morphometric analysis were performed using the Watershed Counting3D plugin of ImageJ. Images were converted to RGB colour format and processed by WatershedCounting3D. Puncta count and surface area were determined for each colour puncta from the output file generated. Equations 1, 2 and 3 described above were used to determine the radius, volume and total surface area of spheres.
In order to assess the basal autophagosome flux in steady state, cells were treated with 400 nM bafilomycin A1 (FIG. 4). The autophagosomal pool size was monitored for two hours post-inhibition and images were acquired at 30 minute intervals. The basal flux, Jbasal, was determined by allowing the autophagic system to reach a steady state under basal conditions (basal flux is the initial slope of the progress curve at the point of inhibition of fusion). Multiple cells (n=10) were assessed simultaneously using a stage control. The transition time, τ, was calculated from the ratio τ=nA/J of the autophagosome pool size and autophagosome flux, and indicated the turnover time of the autophagosome pool at steady state.
The autophagosome flux J, the autophagosomal pool size nA, and the autophagosomal transition time τ were determined (FIG. 6 and Table 1).

[2] = 25 nM rapamycin versus basal, increase

Structure (SMILES)	LC3II and p62 bands (LC3, p62 and pmTOR)	Inhibition of autophagosomal-lysosomal fusion ([1]; 400 nM for 2 hours)	Cell toxicity ([1]; concentration of 800 nM)	Transition time, % change (% Δ) (MEF cells; 25 nM rapamycin versus basal, decrease) [%]	Autophagosome Pool size nA, % change (% Δ) (MEF cells; [2]) [%]	Autophagosome flux J, % change (% Δ) (MEF cells; [2]) [%]	Autophagolysosomal transition time, τAL (MEF cells; induced with rapamycin) [h]	Autophagosomal membrane flux, Jmem (MEF cells; induced with rapamycin) [μm^2/hr/cell]	Cytoplasmic volume consumption rate, Jvol (MEF cells; induced with rapamycin) [fL/hr/cell]	Autophagosome flux, J (MEF cells; induced with rapamycin (25 nM)) [A/hr/cell]	Average volume of an autophagosome (MEF cells; induced with rapamycin (25 nM)) [fL]	Number of autophagolysosomes, nAL (MEF cells; induced with rapamycin (25 nM)) [AL/cell]	Number of autophagosomes, nA (MEF cells; induced with rapamycin (25 nM)) [A/cell]	Autophagosomal transition time, τA (MEF cells; induced with rapamycin, τ=nA/J) [h]	Autophagosome Pool size nA (MEF cells; modulator rapamycin (Table 2))	Autophagosome flux, J (MEF cells; modulator rapamycin (Table 2))	Transition time (MEF cells; modulator rapamycin (Table 2)) [h]	Autophagosome Pool size nA, net change (Δ) (MEF cells; rapamycin versus basal)	Autophagosome flux J, net change (Δ) (MEF cells; rapamycin versus basal)	Transition time, net change (Δ) (MEF cells; rapamycin versus basal, decrease) [h]
CO/C1=C\C(C)=C\[C@@H](C)[C@@H](O)[C@@H](C)C/C(C)=C/C=C/[C@H](OC)[C@@H]([C@@H](C)[C@@H](O)[C@H](C)[C@@]2(O)C[C@@H](O)[C@H](C)[C@@H](C(C)C)O2)OC1=O [Bafilomycin A1]	increases	complete inhibition	cell toxicity was observed																	
CO[C@H]1C[C@@H]2CC[C@@H](C)[C@@](O)(O2)C(=O)C(=O)N2CCCC[C@H]2C(=O)O[C@H]([C@H](C)C[C@@H]2CC[C@@H](O)[C@H](OC)C2)CC(=O)[C@H](C)/C=C(\C)[C@@H](O)[C@@H](OC)C(=O)[C@H](C)C[C@H](C)/C=C/C=C/C=C/1C [rapamycin]				69.8	22.4	315	2.4	8268	495	105.4	4.7	251.2	16.7	0.16	16.4 No. of autophagosomes	105.4 No. of autophagosomes/cell*hr^1	0.16	3 No. of autophagosomes	80 No. of autophagosomes/cell*hr^1	0.37
